Experimental data from the Kinase Knowledgebase extract (Sharma et al. 2016).

target: PIK3CD (Human) (UniProt O00329); assay: Assessment of PI3KCD Kinase Activity
Sequence (O00329 whole entry, looked up): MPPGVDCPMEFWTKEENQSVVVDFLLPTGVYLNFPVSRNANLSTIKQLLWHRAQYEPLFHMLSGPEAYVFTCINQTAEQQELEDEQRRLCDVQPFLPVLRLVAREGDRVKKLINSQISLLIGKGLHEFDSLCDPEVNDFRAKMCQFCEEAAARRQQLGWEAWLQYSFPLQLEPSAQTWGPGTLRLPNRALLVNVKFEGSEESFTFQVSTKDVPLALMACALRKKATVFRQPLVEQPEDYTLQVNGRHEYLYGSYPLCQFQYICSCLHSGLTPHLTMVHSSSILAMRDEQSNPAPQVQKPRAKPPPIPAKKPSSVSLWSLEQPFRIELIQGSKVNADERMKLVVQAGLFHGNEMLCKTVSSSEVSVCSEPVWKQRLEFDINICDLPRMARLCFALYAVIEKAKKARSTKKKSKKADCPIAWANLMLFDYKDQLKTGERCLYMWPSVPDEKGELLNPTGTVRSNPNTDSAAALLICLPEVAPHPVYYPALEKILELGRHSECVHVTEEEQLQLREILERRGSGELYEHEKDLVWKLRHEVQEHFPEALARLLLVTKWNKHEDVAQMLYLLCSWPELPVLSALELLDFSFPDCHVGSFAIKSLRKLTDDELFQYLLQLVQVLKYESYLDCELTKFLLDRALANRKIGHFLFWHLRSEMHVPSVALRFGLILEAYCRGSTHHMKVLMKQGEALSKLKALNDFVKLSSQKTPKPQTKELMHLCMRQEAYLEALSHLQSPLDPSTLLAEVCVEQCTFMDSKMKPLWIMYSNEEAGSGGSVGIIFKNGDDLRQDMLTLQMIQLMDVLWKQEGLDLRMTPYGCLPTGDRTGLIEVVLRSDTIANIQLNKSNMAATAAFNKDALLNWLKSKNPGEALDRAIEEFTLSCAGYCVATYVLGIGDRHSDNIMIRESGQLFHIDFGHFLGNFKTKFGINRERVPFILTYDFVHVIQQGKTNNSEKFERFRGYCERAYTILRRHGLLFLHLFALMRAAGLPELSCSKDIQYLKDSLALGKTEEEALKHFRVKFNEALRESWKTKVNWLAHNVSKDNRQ

Compound | IC50
Cc1ccccc1-n1c(Cn2nc(I)c3c(N)nccc32)cc2cccc(C)c2c1=O | < 100 nM
Cc1cccc2cc(Cn3nc(C#C[C@@H](C)O)c4c(N)ncnc43)n(-c3ccccc3F)c(=O)c12 | < 100 nM
COc1ccccc1-n1c(Cn2nc(C#C[C@@H](C)O)c3c(N)ncnc32)cc2cccc(C)c2c1=O | < 100 nM
Cc1ccccc1-n1c(Cn2nc(C#C[C@H](C)O)c3c(N)ncnc32)nc2scc(C)c2c1=O | < 100 nM
Cc1ccccc1-n1c(Cn2nc(-c3cc(O)cc(F)c3)c3c(N)ncnc32)nc2c(C)nn(C)c2c1=O | < 100 nM
Cc1csc2nc(Cn3nc(-c4cccc(O)c4)c4c(N)ncnc43)n(-c3ccccc3F)c(=O)c12 | < 100 nM
Cc1ccccc1-n1c(Cn2nc(-c3cccc(O)c3)c3c(N)ncnc32)nc2scc(C(F)(F)F)c2c1=O | < 100 nM
Cc1ccccc1-n1c(Cn2nc(I)c3c(N)ncnc32)nc2scc(C)c2c1=O | < 100 nM
Cc1cccc2cc(Cn3nc(I)c4c(N)ncnc43)n(-c3ccccc3OCCN3CCOCC3)c(=O)c12 | < 100 nM
Cc1cccc2cc(Cn3nc(-c4ccc(Cl)c(O)c4)c4c(N)ncnc43)n(C(C)C)c(=O)c12 | < 100 nM
C=Cc1nn(Cc2cc3cccc(C)c3c(=O)n2-c2ccccc2C)c2ncnc(N)c12 | < 100 nM
Cc1csc2nc(Cn3nc(C#C[C@@H](C)O)c4c(N)ncnc43)n(-c3ccccc3C(C)C)c(=O)c12 | < 100 nM
Cc1ccccc1-n1c(Cn2nc(Br)c3c(N)ncnc32)nc2scc(C)c2c1=O | < 100 nM
Cc1cccc2cc(Cn3nc(-c4cccc(O)c4)c4c(N)ncnc43)n(-c3ccccc3OCCN3CCOCC3)c(=O)c12 | < 100 nM
Cc1cccc2cc(Cn3nc(-c4cc(O)cc(F)c4)c4c(N)ncnc43)n(C)c(=O)c12 | < 100 nM
Cc1ccccc1-n1c(Cn2nc(C#C[C@@H](C)O)c3c(N)ncnc32)cc2cccc(C)c2c1=O | < 100 nM
Cc1ccccc1-n1c(Cn2nc(-c3cccc(O)c3)c3c(N)ncnc32)cc2ccccc2c1=O | < 100 nM
Cc1csc2nc(Cn3nc(-c4ccc(Cl)c(O)c4)c4c(N)ncnc43)n(-c3ccccc3F)c(=O)c12 | < 100 nM
COc1ccccc1-n1c(Cn2nc(-c3cccc(O)c3)c3c(N)ncnc32)nc2scc(C)c2c1=O | < 100 nM
Cc1cccc2cc(Cn3nc(-c4cccc(O)c4)c4c(N)ncnc43)n(C3CCCC3)c(=O)c12 | < 100 nM
Cc1cccc2cc(Cn3nc(-c4cc(O)cc(F)c4)c4c(N)ncnc43)n(C3CCC3)c(=O)c12 | < 100 nM
Cc1ccccc1-n1c(Cn2nc(Br)c3c(N)ncnc32)nc2nccc(C)c2c1=O | < 100 nM
Cc1cccc2cc(Cn3nc(-c4cccc(O)c4)c4c(N)ncnc43)n(-c3ccccc3F)c(=O)c12 | < 100 nM

Compound | IC50
CC(C)n1c(Cn2nc(-c3cccc(O)c3)c3c(N)ncnc32)cc2cccc(Cl)c2c1=O | < 100 nM
Cc1ccccc1-n1c(Cn2nc(-c3cccc(O)c3)c3c(N)nccc32)cc2cccc(C)c2c1=O | < 100 nM
Cc1cccc2cc(Cn3nc(C#C[C@@H](C)O)c4c(N)ncnc43)n(C3CCCC3)c(=O)c12 | < 100 nM
Cc1ccccc1-n1c(Cn2nc(C#CCO)c3c(N)ncnc32)cc2cccc(C)c2c1=O | < 100 nM
Cc1ccccc1-n1c(Cn2nc(C#CCO)c3c(N)ncnc32)nc2scc(C)c2c1=O | < 100 nM
Cc1cccc2cc(Cn3nc(C#C[C@@H](C)O)c4c(N)ncnc43)n(C(C)C)c(=O)c12 | < 100 nM
Cc1ccccc1-n1c(Cn2nc(Br)c3c(N)ncnc32)nc2sc(C)c(C)c2c1=O | < 100 nM
Cc1cccc2cc(Cn3nc(I)c4c(N)ncnc43)n(C3CCC3)c(=O)c12 | < 100 nM
Cc1ccncc1-n1c(Cn2nc(I)c3c(N)ncnc32)cc2cccc(C)c2c1=O | < 100 nM
Cc1csc2nc(Cn3nc(Br)c4c(N)ncnc43)n(-c3ccccc3C(F)(F)F)c(=O)c12 | < 100 nM
CC(C)n1c(Cn2nc(-c3cc(O)cc(F)c3)c3c(N)ncnc32)cc2cccc(F)c2c1=O | < 100 nM
Cc1ccccc1-n1c(Cn2nc(-c3ccc(O)c(F)c3)c3c(N)ncnc32)cc2nccc(C)c2c1=O | < 100 nM
Cc1cccc2cc(Cn3nc(-c4cccc(O)c4)c4c(N)ncnc43)n(C3CCCCC3)c(=O)c12 | < 100 nM
CCc1ccccc1-n1c(Cn2nc(C#C[C@@H](C)O)c3c(N)ncnc32)nc2scc(C)c2c1=O | < 100 nM
Cc1cccc2cc(Cn3nc(I)c4c(N)ncnc43)n(C(C)C)c(=O)c12 | < 100 nM
Cc1ccccc1-n1c(Cn2nc(-c3cc(O)cc(F)c3)c3c(N)ncnc32)nc2snc(C)c2c1=O | < 100 nM
Cc1cccnc1-n1c(Cn2nc(-c3cccc(O)c3)c3c(N)ncnc32)nc2scc(C)c2c1=O | < 100 nM
Cc1ccccc1-n1c(Cn2nc(-c3cc(O)cc(F)c3)c3c(N)ncnc32)nc2cnn(C)c2c1=O | < 100 nM
CC(C)n1c(Cn2nc(-c3cc(O)cc(F)c3)c3c(N)ncnc32)cc2cccc(Cl)c2c1=O | < 100 nM
Cc1ccnc2cc(Cn3nc(-c4cc(O)cc(F)c4)c4c(N)ncnc43)n(-c3ccccc3F)c(=O)c12 | < 100 nM
Cc1cccc2cc(Cn3nc(C#C[C@@H](C)O)c4c(N)ncnc43)n(-c3ccccc3O)c(=O)c12 | < 100 nM
Cc1csc2nc(Cn3nc(C#C[C@@H](C)O)c4c(N)ncnc43)n(-c3ccccc3C(F)(F)F)c(=O)c12 | < 100 nM
Nc1ncnc2c1c(-c1cc(O)cc(F)c1)nn2Cc1cc2cccc(F)c2c(=O)n1-c1ccccc1F | < 100 nM

Compound | IC50
Cc1ccccc1-n1c(Cn2nc(C#C[C@@H](C)O)c3c(N)ncnc32)nc2scc(C)c2c1=O | < 100 nM
CC(C)n1c(Cn2nc(-c3cccc(O)c3)c3c(N)ncnc32)cc2ccccc2c1=O | < 100 nM
Cc1csc2nc(Cn3nc(Cl)c4c(N)ncnc43)n(-c3ccccc3C(F)(F)F)c(=O)c12 | < 100 nM
Cc1ccccc1-n1c(Cn2nc(-c3cccc(O)c3)c3c(N)ncnc32)nc2cnn(C)c2c1=O | < 100 nM
Cc1cccc2cc(Cn3nc(-c4cnn(CCO)c4)c4c(N)ncnc43)n(-c3ccccc3F)c(=O)c12 | < 100 nM
Cc1cccnc1-n1c(Cn2nc(-c3cccc(O)c3)c3c(N)ncnc32)cc2cccc(C)c2c1=O | < 100 nM
Cc1cccc2cc(Cn3nc(-c4cn[nH]c4)c4c(N)ncnc43)n(-c3ccccc3Cl)c(=O)c12 | < 100 nM
Cc1cccc2cc(Cn3nc(-c4cn[nH]c4)c4c(N)ncnc43)n(-c3ccccc3F)c(=O)c12 | < 100 nM
Cc1cccc2cc(Cn3nc(-c4cc(O)cc(F)c4)c4c(N)ncnc43)n(-c3ccccc3OCCN3CCOCC3)c(=O)c12 | < 100 nM
Cc1csc2nc(Cn3nc(I)c4c(N)ncnc43)n(-c3ccccc3Cl)c(=O)c12 | < 100 nM
COc1ccccc1-n1c(Cn2nc(I)c3c(N)ncnc32)cc2cccc(C)c2c1=O | < 100 nM
CCn1c(Cn2nc(-c3cccc(O)c3)c3c(N)ncnc32)cc2cccc(C)c2c1=O | < 100 nM
Cc1ccccc1-n1c(Cn2nc(-c3cc(O)cc(F)c3)c3c(N)ncnc32)nc2sc(C)c(C)c2c1=O | < 100 nM
Cc1ccccc1-n1c(Cn2nc(-c3cc(O)cc(F)c3)c3c(N)nccc32)cc2cccc(C)c2c1=O | < 100 nM
Cc1csc2nc(Cn3nc(-c4cc(O)cc(F)c4)c4c(N)ncnc43)n(-c3ccccc3Cl)c(=O)c12 | < 100 nM
Cc1ccccc1-n1c(Cn2nc(C#N)c3c(N)ncnc32)cc2cccc(C)c2c1=O | < 100 nM
Cc1cccc2cc(Cn3nc(C#C[C@@H](C)O)c4c(N)ncnc43)n(C3CC3)c(=O)c12 | < 100 nM
Cc1csc2nc(Cn3nc(Br)c4c(N)ncnc43)n(-c3ccccc3Cl)c(=O)c12 | < 100 nM
Cc1ccccc1-n1c(Cn2nc(Cl)c3c(N)ncnc32)cc2cccc(C)c2c1=O | < 100 nM
Cc1ccccc1-n1c(Cn2nc(Cl)c3c(N)ncnc32)nc2nccc(C)c2c1=O | < 100 nM
Cc1ccccc1-n1c(Cn2nc(Cl)c3c(N)ncnc32)nc2scc(C)c2c1=O | < 100 nM
Cc1csc2nc(Cn3nc(C#CCO)c4c(N)ncnc43)n(-c3ccccc3F)c(=O)c12 | < 100 nM
CCc1ccccc1-n1c(Cn2nc(C#C[C@@H](C)O)c3c(N)ncnc32)cc2cccc(C)c2c1=O | < 100 nM

Compound | IC50
Cc1csc2nc(Cn3nc(-c4ccc(F)c(O)c4)c4c(N)ncnc43)n(-c3ccccc3F)c(=O)c12 | < 100 nM
Nc1ncnc2c1c(-c1cccc(O)c1)nn2Cc1cc2cccc(Cl)c2c(=O)n1C1CC1 | < 100 nM
Cc1cccc2cc(Cn3nc(-c4cccc(O)c4)c4c(N)ncnc43)n(C3CCC3)c(=O)c12 | < 100 nM
Cc1csc2nc(Cn3nc(-c4cccc(O)c4)c4c(N)ncnc43)n(-c3ccccc3Cl)c(=O)c12 | < 100 nM
Cc1cccc2cc(Cn3nc(-c4cn[nH]c4)c4c(N)ncnc43)n(-c3cccc(F)c3)c(=O)c12 | < 100 nM
Cc1ccccc1-n1c(Cn2nc(Br)c3c(N)ncnc32)nc2scc(C(F)(F)F)c2c1=O | < 100 nM
Cc1ccccc1-n1c(Cn2nc(-c3cc(O)cc(F)c3)c3c(N)ncnc32)cc2cccc(F)c2c1=O | < 100 nM
Nc1ncnc2c1c(I)nn2Cc1cc2cccc(Cl)c2c(=O)n1C1CC1 | < 100 nM
Cc1ccccc1-n1c(Cn2nc(-c3cc(O)cc(F)c3)c3c(N)ncnc32)nc2scc(C(F)(F)F)c2c1=O | < 100 nM
Cc1cccc2cc(Cn3nc(C#C[C@@H](C)O)c4c(N)ncnc43)n(C3CCCCC3)c(=O)c12 | < 100 nM
Cc1cccc2cc(Cn3nc(-c4cc(O)cc(F)c4)c4c(N)ncnc43)n(C(C)C)c(=O)c12 | < 100 nM
Cc1ccnc2nc(Cn3nc(I)c4c(N)ncnc43)n(-c3ccccc3F)c(=O)c12 | < 100 nM
Cc1cccc2cc(Cn3nc(I)c4c(N)ncnc43)n(-c3ccccc3F)c(=O)c12 | < 100 nM
COc1ccccc1-n1c(Cn2nc(Br)c3c(N)ncnc32)nc2scc(C)c2c1=O | < 100 nM
Cc1cccc2cc(Cn3nc(-c4ccc(F)c(O)c4)c4c(N)ncnc43)n(-c3ccccc3F)c(=O)c12 | < 100 nM
Cc1cccc2cc(Cn3nc(-c4cc(O)cc(F)c4)c4c(N)ncnc43)n(C3CCCCC3)c(=O)c12 | < 100 nM
Cc1cccc2cc(Cn3nc(-c4cccc(O)c4)c4c(N)ncnc43)n(C)c(=O)c12 | < 100 nM
Cc1cccc2cc(Cn3nc(C#N)c4c(N)ncnc43)n(-c3ccccc3F)c(=O)c12 | < 100 nM
Cc1cccc2cc(Cn3nc(C#CCO)c4c(N)ncnc43)n(-c3ccccc3F)c(=O)c12 | < 100 nM
CC(C)n1c(Cn2nc(-c3cc(O)cc(F)c3)c3c(N)ncnc32)cc2ccccc2c1=O | < 100 nM
